Publication PMC5862616 (Oncotarget, 2018)
“Also recorded” adds a separate entry of the source.

Legend:
[1] = molecular target: T1, AXL (Homo sapiens, UniProt P30530); test: scanMAX kinase panel
T1 sequence (P30530 26-894): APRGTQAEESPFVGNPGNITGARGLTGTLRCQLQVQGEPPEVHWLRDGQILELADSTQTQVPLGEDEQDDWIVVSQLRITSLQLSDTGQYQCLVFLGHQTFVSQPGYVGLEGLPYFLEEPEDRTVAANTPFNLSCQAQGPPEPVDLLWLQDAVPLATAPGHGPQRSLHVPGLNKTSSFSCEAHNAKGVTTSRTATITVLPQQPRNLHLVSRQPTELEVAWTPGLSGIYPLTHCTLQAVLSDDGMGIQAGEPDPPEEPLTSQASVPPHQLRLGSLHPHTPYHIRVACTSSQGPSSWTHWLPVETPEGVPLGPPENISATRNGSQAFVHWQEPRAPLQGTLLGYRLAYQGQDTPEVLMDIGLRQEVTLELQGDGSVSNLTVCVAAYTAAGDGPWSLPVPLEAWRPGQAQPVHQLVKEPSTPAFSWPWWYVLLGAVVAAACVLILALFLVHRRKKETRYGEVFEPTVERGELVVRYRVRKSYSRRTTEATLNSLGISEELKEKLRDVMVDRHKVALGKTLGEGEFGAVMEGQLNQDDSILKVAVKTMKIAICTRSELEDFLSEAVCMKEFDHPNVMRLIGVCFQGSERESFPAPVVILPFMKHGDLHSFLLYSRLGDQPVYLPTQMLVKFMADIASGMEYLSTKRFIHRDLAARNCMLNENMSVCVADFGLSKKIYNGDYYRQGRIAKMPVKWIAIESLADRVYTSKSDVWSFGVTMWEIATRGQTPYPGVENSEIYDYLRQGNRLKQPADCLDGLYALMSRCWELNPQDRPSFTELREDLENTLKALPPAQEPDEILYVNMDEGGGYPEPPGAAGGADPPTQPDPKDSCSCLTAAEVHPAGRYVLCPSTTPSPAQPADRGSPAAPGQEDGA

[2] = molecular target: MET (Homo sapiens, UniProt P08581); test: scanMAX kinase panel
[3] = molecular target: DDR1 (Homo sapiens, UniProt Q08345); test: scanMAX kinase panel
Chain of DDR1 (Q08345 19-913): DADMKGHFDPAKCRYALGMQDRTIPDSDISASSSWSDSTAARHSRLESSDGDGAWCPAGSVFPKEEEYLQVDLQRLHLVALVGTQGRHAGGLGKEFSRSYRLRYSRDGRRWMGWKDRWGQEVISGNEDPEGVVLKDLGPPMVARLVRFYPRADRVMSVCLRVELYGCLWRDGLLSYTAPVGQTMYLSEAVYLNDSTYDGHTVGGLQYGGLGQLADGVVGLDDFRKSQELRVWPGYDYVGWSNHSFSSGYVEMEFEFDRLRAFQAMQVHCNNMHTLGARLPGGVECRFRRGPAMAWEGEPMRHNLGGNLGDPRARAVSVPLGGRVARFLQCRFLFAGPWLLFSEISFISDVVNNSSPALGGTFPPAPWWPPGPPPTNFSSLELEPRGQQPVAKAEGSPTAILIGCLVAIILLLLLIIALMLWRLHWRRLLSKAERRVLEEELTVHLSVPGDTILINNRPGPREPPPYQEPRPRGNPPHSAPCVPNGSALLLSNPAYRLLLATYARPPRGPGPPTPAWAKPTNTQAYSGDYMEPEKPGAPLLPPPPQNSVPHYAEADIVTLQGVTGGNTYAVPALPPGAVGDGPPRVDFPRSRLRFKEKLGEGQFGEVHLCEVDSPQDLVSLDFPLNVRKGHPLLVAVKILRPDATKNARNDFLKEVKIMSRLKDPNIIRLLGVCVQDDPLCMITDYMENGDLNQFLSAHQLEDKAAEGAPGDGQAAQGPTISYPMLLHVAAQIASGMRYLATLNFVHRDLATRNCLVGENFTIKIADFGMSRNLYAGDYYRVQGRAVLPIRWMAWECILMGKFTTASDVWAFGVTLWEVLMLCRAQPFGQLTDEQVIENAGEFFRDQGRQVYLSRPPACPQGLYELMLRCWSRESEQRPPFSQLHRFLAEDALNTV

[4] = molecular target: TEK (TIE2) (Homo sapiens, UniProt Q02763); test: scanMAX kinase panel
Chain of TEK (TIE2) (Q02763 23-1124): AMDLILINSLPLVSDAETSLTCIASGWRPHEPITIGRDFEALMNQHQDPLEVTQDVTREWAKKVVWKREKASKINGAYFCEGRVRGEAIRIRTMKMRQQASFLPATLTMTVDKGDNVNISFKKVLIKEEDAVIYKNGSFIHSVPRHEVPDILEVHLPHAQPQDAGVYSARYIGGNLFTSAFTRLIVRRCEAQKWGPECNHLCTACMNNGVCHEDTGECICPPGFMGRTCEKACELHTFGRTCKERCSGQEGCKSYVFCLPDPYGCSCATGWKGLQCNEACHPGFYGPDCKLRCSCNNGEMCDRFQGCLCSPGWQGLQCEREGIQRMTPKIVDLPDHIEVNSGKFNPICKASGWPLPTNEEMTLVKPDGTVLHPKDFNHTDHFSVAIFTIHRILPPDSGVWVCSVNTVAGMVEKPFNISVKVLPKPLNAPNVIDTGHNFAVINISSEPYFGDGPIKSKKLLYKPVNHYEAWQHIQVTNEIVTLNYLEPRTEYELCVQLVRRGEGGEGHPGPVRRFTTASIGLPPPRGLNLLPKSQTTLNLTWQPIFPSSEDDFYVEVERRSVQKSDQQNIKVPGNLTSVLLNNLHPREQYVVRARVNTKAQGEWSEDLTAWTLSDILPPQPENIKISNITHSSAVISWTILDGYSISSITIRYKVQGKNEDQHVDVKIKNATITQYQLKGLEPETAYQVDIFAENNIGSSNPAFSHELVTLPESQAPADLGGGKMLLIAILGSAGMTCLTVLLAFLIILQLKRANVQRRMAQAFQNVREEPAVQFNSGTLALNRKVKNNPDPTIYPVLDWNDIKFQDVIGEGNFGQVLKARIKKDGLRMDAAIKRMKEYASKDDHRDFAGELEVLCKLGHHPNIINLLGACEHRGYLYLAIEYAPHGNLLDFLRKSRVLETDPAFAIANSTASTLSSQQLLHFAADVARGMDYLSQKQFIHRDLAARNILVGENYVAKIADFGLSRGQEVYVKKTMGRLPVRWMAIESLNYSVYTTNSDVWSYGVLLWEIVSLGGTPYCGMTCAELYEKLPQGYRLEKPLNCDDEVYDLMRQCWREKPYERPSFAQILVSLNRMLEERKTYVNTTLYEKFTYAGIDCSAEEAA

[5] = molecular target: CSF1R (Homo sapiens, UniProt P07333); test: scanMAX kinase panel
[6] = molecular target: TPM3-NTRK1 (p-NTRK1 Y490) in KM-12 cells (Homo sapiens, UniProt P04629+P06753); test: Western blot of p-NTRK1 Y490 in KM-12 cells; details: 2 hours, b12: 100, 500, 1000 nM
Chain of TPM3-NTRK1 (p-NTRK1 Y490) in KM-12 cells (P06753+P04629 fused): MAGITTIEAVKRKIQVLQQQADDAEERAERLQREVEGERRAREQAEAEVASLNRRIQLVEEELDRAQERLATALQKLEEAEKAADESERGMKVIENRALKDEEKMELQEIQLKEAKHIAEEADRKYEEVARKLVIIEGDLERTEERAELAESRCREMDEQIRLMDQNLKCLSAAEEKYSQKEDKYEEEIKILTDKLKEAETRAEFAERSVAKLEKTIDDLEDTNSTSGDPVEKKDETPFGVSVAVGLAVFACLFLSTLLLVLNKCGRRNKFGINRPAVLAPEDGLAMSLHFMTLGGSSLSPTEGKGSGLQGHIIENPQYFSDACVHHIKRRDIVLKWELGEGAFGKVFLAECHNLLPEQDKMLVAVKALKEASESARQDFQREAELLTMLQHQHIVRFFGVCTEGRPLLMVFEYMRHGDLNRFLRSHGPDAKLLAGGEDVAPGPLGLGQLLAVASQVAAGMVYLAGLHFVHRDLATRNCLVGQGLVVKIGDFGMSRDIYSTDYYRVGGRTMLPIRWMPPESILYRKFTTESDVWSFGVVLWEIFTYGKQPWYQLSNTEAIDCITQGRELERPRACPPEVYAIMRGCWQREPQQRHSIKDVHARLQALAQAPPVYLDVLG

[7] = molecular target: RET (Homo sapiens, UniProt P07949); test: scanMAX kinase panel
Chain of RET (P07949 29-1114): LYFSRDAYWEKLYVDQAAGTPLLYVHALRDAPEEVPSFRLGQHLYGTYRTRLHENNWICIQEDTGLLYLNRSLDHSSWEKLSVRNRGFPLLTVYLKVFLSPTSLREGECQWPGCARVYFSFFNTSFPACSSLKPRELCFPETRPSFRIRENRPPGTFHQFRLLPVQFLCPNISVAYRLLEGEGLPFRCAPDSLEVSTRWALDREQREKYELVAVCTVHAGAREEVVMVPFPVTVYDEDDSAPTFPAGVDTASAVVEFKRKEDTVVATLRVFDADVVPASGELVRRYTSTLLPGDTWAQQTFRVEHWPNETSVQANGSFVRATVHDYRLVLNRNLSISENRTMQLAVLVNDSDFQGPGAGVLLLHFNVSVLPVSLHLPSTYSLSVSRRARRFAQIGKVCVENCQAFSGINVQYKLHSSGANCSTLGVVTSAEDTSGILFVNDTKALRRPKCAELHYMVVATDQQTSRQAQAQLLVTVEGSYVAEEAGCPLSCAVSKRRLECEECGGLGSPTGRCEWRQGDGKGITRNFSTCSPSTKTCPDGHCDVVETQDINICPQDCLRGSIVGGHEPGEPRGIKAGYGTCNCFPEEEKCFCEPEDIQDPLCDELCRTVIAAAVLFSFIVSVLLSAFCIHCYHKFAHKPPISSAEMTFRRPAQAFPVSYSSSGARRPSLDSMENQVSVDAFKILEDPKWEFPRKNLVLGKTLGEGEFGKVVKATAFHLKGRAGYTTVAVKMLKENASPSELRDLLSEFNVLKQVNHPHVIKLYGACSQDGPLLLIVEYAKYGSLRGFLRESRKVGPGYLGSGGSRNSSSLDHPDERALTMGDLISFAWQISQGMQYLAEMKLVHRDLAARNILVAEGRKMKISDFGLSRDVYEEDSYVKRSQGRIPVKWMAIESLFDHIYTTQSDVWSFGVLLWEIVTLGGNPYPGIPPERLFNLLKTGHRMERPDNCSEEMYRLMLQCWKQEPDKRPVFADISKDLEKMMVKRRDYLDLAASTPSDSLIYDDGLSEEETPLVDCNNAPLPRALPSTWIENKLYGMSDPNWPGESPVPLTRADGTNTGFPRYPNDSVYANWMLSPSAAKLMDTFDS

[8] = molecular target: ROS1 (Homo sapiens, UniProt P08922); test: scanMAX kinase panel
[9] = molecular target: T2, DDR2 (Homo sapiens, UniProt Q16832); test: scanMAX kinase panel
T2 sequence (Q16832 22-855): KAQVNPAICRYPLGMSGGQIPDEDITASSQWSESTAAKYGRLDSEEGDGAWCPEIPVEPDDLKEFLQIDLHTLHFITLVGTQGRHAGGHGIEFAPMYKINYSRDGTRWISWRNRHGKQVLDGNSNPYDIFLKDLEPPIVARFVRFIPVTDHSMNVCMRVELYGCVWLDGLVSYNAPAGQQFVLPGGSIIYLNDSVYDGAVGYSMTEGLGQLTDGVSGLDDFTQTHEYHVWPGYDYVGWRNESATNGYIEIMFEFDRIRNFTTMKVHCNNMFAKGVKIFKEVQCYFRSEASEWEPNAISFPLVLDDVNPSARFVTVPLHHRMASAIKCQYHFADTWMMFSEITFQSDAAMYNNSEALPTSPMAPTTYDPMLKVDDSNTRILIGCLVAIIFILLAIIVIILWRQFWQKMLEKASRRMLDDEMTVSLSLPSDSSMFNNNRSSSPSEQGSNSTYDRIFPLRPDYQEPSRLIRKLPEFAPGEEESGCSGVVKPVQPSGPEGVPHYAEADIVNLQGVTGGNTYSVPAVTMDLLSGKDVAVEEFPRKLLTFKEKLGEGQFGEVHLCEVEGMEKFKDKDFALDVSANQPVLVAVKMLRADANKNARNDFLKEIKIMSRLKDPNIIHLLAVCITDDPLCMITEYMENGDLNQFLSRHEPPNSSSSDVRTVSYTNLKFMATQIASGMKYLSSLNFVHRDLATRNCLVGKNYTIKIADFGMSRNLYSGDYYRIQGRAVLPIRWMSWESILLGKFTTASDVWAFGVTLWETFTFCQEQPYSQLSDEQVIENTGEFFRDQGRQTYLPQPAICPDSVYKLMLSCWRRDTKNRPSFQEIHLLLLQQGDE

[10] = molecular target: NTRK1 (TrkA) (Homo sapiens, UniProt P04629); test: TrkA PathHunter cell based kinase assay (activation by NGF); parameters: purchased DiscoveRx; details: activation by the ligand NGF; ten-point, 3.8 nM - 10 μM
[11] = molecular target: MST1R (Homo sapiens, UniProt Q04912); test: scanMAX kinase panel
Chain of MST1R (Q04912 25-1400): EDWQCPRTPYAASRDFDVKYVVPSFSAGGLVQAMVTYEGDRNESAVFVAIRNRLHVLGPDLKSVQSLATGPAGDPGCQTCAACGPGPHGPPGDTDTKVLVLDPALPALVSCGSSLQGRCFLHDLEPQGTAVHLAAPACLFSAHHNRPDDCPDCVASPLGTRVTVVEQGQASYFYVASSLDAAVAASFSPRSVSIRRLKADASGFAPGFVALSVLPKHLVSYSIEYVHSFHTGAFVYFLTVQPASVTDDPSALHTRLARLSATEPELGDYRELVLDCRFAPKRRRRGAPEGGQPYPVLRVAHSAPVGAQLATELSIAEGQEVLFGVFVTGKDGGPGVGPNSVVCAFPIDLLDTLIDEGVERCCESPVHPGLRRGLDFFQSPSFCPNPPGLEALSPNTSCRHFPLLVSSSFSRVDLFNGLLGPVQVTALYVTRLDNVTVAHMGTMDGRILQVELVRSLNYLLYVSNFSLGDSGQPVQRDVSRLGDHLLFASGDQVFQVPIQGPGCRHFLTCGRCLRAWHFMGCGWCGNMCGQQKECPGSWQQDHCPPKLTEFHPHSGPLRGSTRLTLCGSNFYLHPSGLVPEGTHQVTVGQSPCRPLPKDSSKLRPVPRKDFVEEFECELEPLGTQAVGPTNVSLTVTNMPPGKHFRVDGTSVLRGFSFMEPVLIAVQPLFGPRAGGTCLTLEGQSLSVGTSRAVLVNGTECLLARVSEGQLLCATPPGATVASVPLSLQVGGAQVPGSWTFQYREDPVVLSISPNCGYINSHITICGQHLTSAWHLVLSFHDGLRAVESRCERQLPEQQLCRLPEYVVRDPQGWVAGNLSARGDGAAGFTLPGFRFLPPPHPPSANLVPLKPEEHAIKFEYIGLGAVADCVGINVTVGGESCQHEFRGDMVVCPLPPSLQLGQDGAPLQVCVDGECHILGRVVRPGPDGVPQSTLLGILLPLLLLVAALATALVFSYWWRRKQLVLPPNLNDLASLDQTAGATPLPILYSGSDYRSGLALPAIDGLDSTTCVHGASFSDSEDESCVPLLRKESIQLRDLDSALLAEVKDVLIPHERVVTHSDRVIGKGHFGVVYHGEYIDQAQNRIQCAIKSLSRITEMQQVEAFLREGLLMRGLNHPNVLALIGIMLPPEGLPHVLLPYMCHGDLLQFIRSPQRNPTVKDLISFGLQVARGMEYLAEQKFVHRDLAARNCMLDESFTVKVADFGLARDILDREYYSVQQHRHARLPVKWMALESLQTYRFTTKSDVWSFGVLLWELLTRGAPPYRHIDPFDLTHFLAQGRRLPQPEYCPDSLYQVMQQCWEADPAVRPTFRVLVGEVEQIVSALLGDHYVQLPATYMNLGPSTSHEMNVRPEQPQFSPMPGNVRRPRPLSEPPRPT

[12] = system: MKNK1/2 (p-eIF4E S209) in KM-12 cells; test: Western blot of p-eIF4E S209 in KM-12 cells; format: cell-based; details: KM-12 cells, 2 hours, western blot; for p-eIF4E reduction (MKNK1/2 inhibition, in words): b12: 100, 500, 1000 nM
Procedure: 20 μg NTRK1 fusion confirmation
T20 (ThermoScientific, Rockford, IL) for 30 minutes. MiniPrep cat# R2051 following manufacturer ’s protocol. […]
(1:2000) (Sigma-Aldrich), HRP-conjugated mouse or primers. The primer sequences are TPM3_Ex3B_F5:
Chalfont, UK). All western blots were developed using Ex12_R5: […]. PCR was […]

[13] = molecular target: MKNK2 (Homo sapiens, UniProt Q9HBH9); test: scanMAX kinase panel

| % Inhibition at 0.2 μM, MET [2] [%] | % Inhibition at 0.2 μM, DDR1 [3] [%] | % Inhibition at 0.2 μM, TEK (TIE2) [4] [%] | % Inhibition at 0.2 μM, CSF1R [5] [%] | p-NTRK1 inhibition (in words) [6] | % Inhibition at 0.2 μM, RET [7] [%] | % Inhibition at 0.2 μM, ROS1 [8] [%] | % Inhibition at 0.2 μM, DDR2 [9] [%] | IC50 [10] [nM] | % Inhibition at 0.2 μM, MST1R [11] [%] | % Inhibition at 0.2 μM, AXL [1] [%] | % Inhibition at 0.2 μM, MKNK2 [13] [%] | SMILES | inhibition at 0.2 µM ([1]; read-out: % Inhibition at 0.2 μM, AXL) [%] | Concentration giving near-complete inhibition of p-eIF4E ([12]; 3.9-1000 nM) [nM] | p-eIF4E reduction (MKNK1/2 inhibition, in words) [12] | inhibition at 0.2 µM ([13]; read-out: % Inhibition at 0.2 μM, MKNK2) [%] |
| --- | --- | --- | --- | --- | --- | --- | --- | --- | --- | --- | --- | --- | --- | --- | --- | --- |
| 93 | 100 | 100 | 97 | slightly less so | 61 | 78 | 99 | 92 | 88 | 100 | 95 | Cn1ncc2cc(Oc3ccc(NC(=O)c4ccc(CO)n(-c5ccc(F)cc5)c4=O)cc3F)c(-c3cn[nH]c3)cc21 [M2] | – | – | slightly less so | – |
| 100 | 100 | 100 | 98 | potent inhibition | 72 | 95 | 94 | 12 | 95 | 99 | 98 | Cc1ccc(C(=O)Nc2ccc(Oc3cc4cn[nH]c4cc3-c3cn[nH]c3)c(F)c2)c(=O)n1-c1ccc(F)cc1 [M1] | – | – | potent inhibition | – |

| SMILES | % Inhibition at 0.2 μM, MET [2] [%] | % Inhibition at 0.2 μM, DDR1 [3] [%] | % Inhibition at 0.2 μM, TEK (TIE2) [4] [%] | % Inhibition at 0.2 μM, CSF1R [5] [%] | p-NTRK1 inhibition (in words) [6] | % Inhibition at 0.2 μM, RET [7] [%] | % Inhibition at 0.2 μM, ROS1 [8] [%] | % Inhibition at 0.2 μM, DDR2 [9] [%] | IC50 [10] [nM] | % Inhibition at 0.2 μM, MST1R [11] [%] | % Inhibition at 0.2 μM, AXL [1] [%] | % Inhibition at 0.2 μM, MKNK2 [13] [%] | inhibition at 0.2 µM ([1]; read-out: % Inhibition at 0.2 μM, AXL) [%] | Concentration giving near-complete inhibition of p-eIF4E ([12]; 3.9-1000 nM) [nM] | p-eIF4E reduction (MKNK1/2 inhibition, in words) [12] | inhibition at 0.2 µM ([13]; read-out: % Inhibition at 0.2 μM, MKNK2) [%] |
| --- | --- | --- | --- | --- | --- | --- | --- | --- | --- | --- | --- | --- | --- | --- | --- | --- |
| Cc1ccc(C(=O)Nc2ccc(Oc3cc4cnn(C)c4cc3-c3cn[nH]c3)c(F)c2)c(=O)n1-c1ccc(F)cc1 [Merestinib] | 98 | 100 | 99 | 97 | dose dependent decrease; also recorded: potent inhibition | 79 | 83 | 97 | 17 | 96 | – | – | 100 | 62.5 | potent inhibition | 98 |
